Data taken from the NIST ThermoML archive (doi:10.1021/acs.jced.8b00132).
Where “and” joins values, the source holds several entries; their conditions need not be identical. Identical values can stand only once.

O=C(C(F)(F)C(F)(F)F)C(F)(C(F)(F)F)C(F)(F)F [dodecafluoro-2-methylpentan-3-one]
Details	thermal conductivity
433.25 K, 43 kPa, Gas, hot wire	0.02108 W/m/K
433.25 K, 156 kPa, Gas, hot wire	0.02107 W/m/K
433.27 K, 1298 kPa, Gas, transient hot wire	0.02415 W/m/K
433.28 K, 371 kPa, Gas, hot wire	0.0228 W/m/K and 0.02281 W/m/K
433.28 K, 922 kPa, Gas, transient hot wire	0.02221 W/m/K
433.28 K, 49421 kPa, Liquid, transient hot wire	0.0643 W/m/K
433.29 K, 49444 kPa, Liquid, transient hot wire	0.06433 W/m/K
433.3 K, 9673 kPa, Liquid, transient hot wire	0.04596 W/m/K
433.3 K, 22710 kPa, Liquid, transient hot wire	0.05348 W/m/K
433.31 K, 9675 kPa, Liquid, transient hot wire	0.04592 W/m/K
433.35 K, 1138 kPa, Gas, transient hot wire	0.02299 W/m/K
433.36 K, 15082 kPa, Liquid, transient hot wire	0.04913 W/m/K
433.36 K, 22714 kPa, Liquid, transient hot wire	0.0536 W/m/K
433.37 K, 162 kPa, Gas, hot wire	0.02126 W/m/K
433.37 K, 1138 kPa, Gas, transient hot wire	0.02295 W/m/K
433.37 K, 15085 kPa, Liquid, transient hot wire	0.04954 W/m/K
433.38 K, 43 kPa, Gas, hot wire	0.02108 W/m/K
433.38 K, 159 kPa, Gas, hot wire	0.02129 W/m/K
433.38 K, 6166 kPa, Liquid, transient hot wire	0.04304 W/m/K
433.39 K, 43 kPa, Gas, hot wire	0.02105 W/m/K
433.39 K, 6163 kPa, Liquid, transient hot wire	0.04307 W/m/K
433.41 K, 34187 kPa, Liquid, transient hot wire	0.05868 W/m/K
433.43 K, 922 kPa, Gas, transient hot wire	0.02216 W/m/K
433.43 K, 34200 kPa, Liquid, transient hot wire	0.05865 W/m/K
433.44 K, 922 kPa, Gas, transient hot wire	0.02224 W/m/K
433.45 K, 3945 kPa, Liquid, transient hot wire	0.04079 W/m/K
433.46 K, 3946 kPa, Liquid, transient hot wire	0.04082 W/m/K
433.49 K, 9685 kPa, Liquid, transient hot wire	0.046 W/m/K
433.5 K, 375 kPa, Gas, transient hot wire	0.02215 W/m/K
433.5 K, 9681 kPa, Liquid, transient hot wire	0.04597 W/m/K
433.51 K, 377 kPa, Gas, transient hot wire	0.02227 W/m/K
433.52 K, 1139 kPa, Gas, transient hot wire	0.02308 W/m/K and 0.02311 W/m/K
433.53 K, 654 kPa, Gas, transient hot wire	0.02193 W/m/K
433.53 K, 655 kPa, Gas, transient hot wire	0.02205 W/m/K
433.55 K, 15079 kPa, Liquid, transient hot wire	0.04951 W/m/K
433.55 K, 15081 kPa, Liquid, transient hot wire	0.04953 W/m/K
433.55 K, 22699 kPa, Liquid, transient hot wire	0.05365 W/m/K
433.55 K, 22714 kPa, Liquid, transient hot wire	0.05356 W/m/K
433.59 K, 6168 kPa, Liquid, transient hot wire	0.04309 W/m/K
433.59 K, 6172 kPa, Liquid, transient hot wire	0.04309 W/m/K
433.6 K, 922 kPa, Gas, transient hot wire	0.02237 W/m/K
433.69 K, 1141 kPa, Gas, transient hot wire	0.02332 W/m/K
433.7 K, 374 kPa, Gas, transient hot wire	0.02216 W/m/K
433.7 K, 375 kPa, Gas, transient hot wire	0.02227 W/m/K
433.7 K, 1140 kPa, Gas, transient hot wire	0.02335 W/m/K
433.7 K, 9688 kPa, Liquid, transient hot wire	0.04596 W/m/K
433.7 K, 9691 kPa, Liquid, transient hot wire	0.046 W/m/K
433.72 K, 652 kPa, Gas, transient hot wire	0.02204 W/m/K
433.74 K, 651 kPa, Gas, transient hot wire	0.02205 W/m/K
433.76 K, 15088 kPa, Liquid, transient hot wire	0.04948 W/m/K
433.76 K, 15091 kPa, Liquid, transient hot wire	0.04951 W/m/K
433.79 K, 922 kPa, Gas, transient hot wire	0.02242 W/m/K
433.81 K, 6177 kPa, Liquid, transient hot wire	0.04299 W/m/K
433.82 K, 6182 kPa, Liquid, transient hot wire	0.04309 W/m/K
433.87 K, 1141 kPa, Gas, transient hot wire	0.02354 W/m/K
433.88 K, 1141 kPa, Gas, transient hot wire	0.02356 W/m/K
433.89 K, 373 kPa, Gas, transient hot wire	0.02231 W/m/K
433.9 K, 373 kPa, Gas, transient hot wire	0.02227 W/m/K
433.92 K, 9693 kPa, Liquid, transient hot wire	0.04597 W/m/K
433.92 K, 9695 kPa, Liquid, transient hot wire	0.04596 W/m/K
433.94 K, 648 kPa, Gas, transient hot wire	0.02211 W/m/K
433.94 K, 649 kPa, Gas, transient hot wire	0.02204 W/m/K
433.96 K, 922 kPa, Gas, transient hot wire	0.02254 W/m/K
433.98 K, 922 kPa, Gas, transient hot wire	0.02253 W/m/K
434.12 K, 372 kPa, Gas, transient hot wire	0.02229 W/m/K and 0.02228 W/m/K
434.14 K, 645 kPa, Gas, transient hot wire	0.02216 W/m/K
434.14 K, 646 kPa, Gas, transient hot wire	0.02214 W/m/K
434.33 K, 371 kPa, Gas, transient hot wire	0.02233 W/m/K
434.35 K, 371 kPa, Gas, transient hot wire	0.02232 W/m/K
452.91 K, 2283 kPa, Gas, transient hot wire	0.03823 W/m/K
452.94 K, 2214 kPa, Gas, transient hot wire	0.03736 W/m/K
452.96 K, 2283 kPa, Gas, transient hot wire	0.03736 W/m/K
452.98 K, 2213 kPa, Gas, transient hot wire	0.03655 W/m/K
452.99 K, 2283 kPa, Gas, transient hot wire	0.03849 W/m/K
452.99 K, 2349 kPa, Gas, transient hot wire	0.03688 W/m/K
453 K, 2137 kPa, Gas, transient hot wire	0.033 W/m/K
453 K, 2214 kPa, Gas, transient hot wire	0.0364 W/m/K
453 K, 2283 kPa, Gas, transient hot wire	0.03799 W/m/K
453.01 K, 2349 kPa, Gas, transient hot wire	0.03694 W/m/K
453.01 K, 2431 kPa, Gas, transient hot wire	0.0358 W/m/K
453.03 K, 2213 kPa, Gas, transient hot wire	0.03832 W/m/K
453.03 K, 2432 kPa, Gas, transient hot wire	0.03591 W/m/K
453.04 K, 2137 kPa, Gas, transient hot wire	0.03326 W/m/K
453.04 K, 2213 kPa, Gas, transient hot wire	0.0384 W/m/K and 0.03766 W/m/K
